# Experimental data published in patent publication US20040266885A1, “Wood preservative compositions” (priority 2001, published 2004).
# “And” between values parts separate entries of the source, which are not always exact repeats. Identical values can stand only once. “Also recorded” adds a separate entry of the source. Like-named read-outs stand apart in the source and are kept apart here.
# Test system: Coptotermes formosanus
# Details: for Surface Activity (termites on the surface of the soil) / Tunneling Activity / Visible Mortality / repellent effect on termites (surface activity data) / termite mortality by the end of the incubation period / toxic value, lower (concentration at which the wood is no longer sufficiently protected) / toxic value, upper (lowest concentration which protects the wood) / Mean Rating (termite attack) / Termite Attack Rating: ethanol carrier; for reduction in termite attack: concentrated solutions, followed by leaching; for termite mortality by the end of the incubation period: higher concentrations; for toxic value, lower (concentration at which the wood is no longer sufficiently protected) / toxic value, upper (lowest concentration which protects the wood): mean loading, leached; for toxic value, lower (concentration at which the wood is no longer sufficiently protected): solution concentration 5%; for toxic value, upper (lowest concentration which protects the wood): solution concentration 7%; for Mean Rating (termite attack): mean of 4 specimens; for Mean Rating (termite attack) / Termite Attack Rating: 4 weeks sand culture; for Termite Attack Rating: single specimen
# From the text: A laboratory test was undertaken to determine the toxic values of novel actives against termites. The active materials used were TBBA, TBBE [4,4′-ethylidenebis(2,6-dibromophenol)] [CAS RN=12639-25-3] (Sample Number 1392-82-03); TBBZ [4,4′-cyclohexylidene(2,6-dibromophenol)] [CAS RN=53350-96-2] (Sample Number 1392-72-03) and TBA, 2,2′,6-tribromo-4,4′-isopropylidenediphenol, CAS 6386-73-8 (Sample Number 1392-75-03).
# The test was undertaken largely according to the strictures laid down in ASTM 3345-74 (the American standard laboratory test to assess the termite resistant properties of wood to wood destroying termites). The test method allows for the exposure of treated buried wood blocks to termites (Reticulitermes or Coptotermes spp.) over a period of 4 weeks. Efficacy of the product is determined by the extent of termite damage to the treated timber specimens through a scoring system. The test was slightly modified from the standard ASTM test by reducing the number of replicate wood specimens from 5 to 4.
# Score 1: Attempted attack
# The toxic values of the preservative product (in kg/m^3 of wood) fall between two values as follows:
# 1) The lowest concentration which protects the wood (i.e. the concentration at which none of the test specimens show a degree of attack greater than 1).
# The termites employed were Coptotermes formosanus.
# All wood bock specimens were of Southern Yellow Pine sapwood (Pinus spp.) with dimensions of 25.4×25.4×6.4 mm in accordance with ASTM D3345-74. All blocks were vacuum impregnated with the relevant solutions in accordance with ASTM D3345-74. Distribution of blocks in the test was as follows:
# The test specimens were conditioned and subjected to a leaching schedule (after vacuum impregnation) as stipulated in ASTM D1413-76 (as recommended in ASTM D3345-74). All test specimens were then air dried for two weeks to constant weight.
# The specimens were each positioned at the base of a 500 ml polyethylene culture jar (numbered according to each test specimen) and covered with 200 g of sand (pre-washed, sterilised and air conditioned in the laboratory) to which was added 25 g of de-ionised water. A further two containers containing watered sand but no timber were also prepared. All the jars were sealed (lids pre-pierced and covered with stainless steel mesh for aeration).
# Two days after specimen placement, 200 termites were added to each culture jar (90% workers and 10% soldiers) and the jars re-sealed. The jars were incubated at a mean temperature and relative humidity of 27.5° C. and 75-90% for 4 weeks. The containers were provided with an artificial lighting regime of 10 hours light and 14 hours darkness.
# After 1 week and 4 weeks each container was examined to determine termite mortality and normal tunneling behaviour patterns as follows:
# Is there tunneling present: YES/NO
# Are there any termites on the surface of the soil: YES/NO (if yes how many, i.e. 1-25% of pop, 26-50% of pop, 51-100% of pop.)
# Are any dead termites visible: YES/NO (if yes how many, 1-33%, 34-66%, 67-100%)
# After 4 weeks the test specimens were removed and cleaned of debris. Each block was examined and visually rated for termite damage using the scoring system detailed above.
# 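For Termite Attack Rating in this document: score 0 no attack 2 slight 3 average 4 strong attack.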
smiles,measurement,setting,value
"CC(C)(c1ccc(O)c(Br)c1)c1cc(Br)c(O)c(Br)c1 [TBA, 2,2′,6-tribromo-4,4′-isopropylidenediphenol]",Surface Activity (termites on the surface of the soil),"1 week, solution conc. 1%",No/No
same,Tunneling Activity,"1 week, solution conc. 1%",Yes/Yes
same,Visible Mortality,"1 week, solution conc. 1%",No/No
same,Surface Activity (termites on the surface of the soil),"1 week, solution conc. 3%",No/No
same,Tunneling Activity,"1 week, solution conc. 3%",Yes/Yes
same,Visible Mortality,"1 week, solution conc. 3%",No
same,Surface Activity (termites on the surface of the soil),"1 week, solution conc. 5%",No/No
same,Tunneling Activity,"1 week, solution conc. 5%",Yes/Yes
same,Visible Mortality,"1 week, solution conc. 5%",No
same,Surface Activity (termites on the surface of the soil),"1 week, solution conc. 7%",No/No
same,Tunneling Activity,"1 week, solution conc. 7%",Yes/Yes
same,Visible Mortality,"1 week, solution conc. 7%",No
same,Surface Activity (termites on the surface of the soil),"1 week, solution conc. 10%",No/No
same,Tunneling Activity,"1 week, solution conc. 10%",Yes/Yes
same,Visible Mortality,"1 week, solution conc. 10%",No
same,Surface Activity (termites on the surface of the soil),"4 weeks, solution conc. 1%",No/No
same,Tunneling Activity,"4 weeks, solution conc. 1%",Yes/Yes
same,Visible Mortality,"4 weeks, solution conc. 1%",No/No
same,Surface Activity (termites on the surface of the soil),"4 weeks, solution conc. 3%",No/No
same,Tunneling Activity,"4 weeks, solution conc. 3%",Yes/Yes
same,Visible Mortality,"4 weeks, solution conc. 3%",1-33 % (of pop.)
same,Surface Activity (termites on the surface of the soil),"4 weeks, solution conc. 5%",No/No
same,Tunneling Activity,"4 weeks, solution conc. 5%",Yes/Yes
same,Visible Mortality,"4 weeks, solution conc. 5%",34-66 % (of pop.)
same,Surface Activity (termites on the surface of the soil),"4 weeks, solution conc. 7%",No/No
same,Tunneling Activity,"4 weeks, solution conc. 7%",Yes/Yes
same,Visible Mortality,"4 weeks, solution conc. 7%",34-66 % (of pop.)
same,Surface Activity (termites on the surface of the soil),"4 weeks, solution conc. 10%",No/No
same,Tunneling Activity,"4 weeks, solution conc. 10%",Yes/Yes
same,Visible Mortality,"4 weeks, solution conc. 10%",34-66 % (of pop.)
same,reduction in termite attack,,a significant reduction in termite attack
same,repellent effect on termites (surface activity data),,no repellent effect
same,termite mortality by the end of the incubation period,,34-66%
same,"toxic value, lower (concentration at which the wood is no longer sufficiently protected)",4 weeks,30.17 kg/m^3
same,"toxic value, upper (lowest concentration which protects the wood)",4 weeks,41.22 kg/m^3
same,Mean Rating (termite attack),solution conc. 1%,3.00
same,Termite Attack Rating,solution conc. 1%,3 and 2 and 4
same,Mean Rating (termite attack),solution conc. 3%,1.75
same,Termite Attack Rating,solution conc. 3%,2 and 1
same,Mean Rating (termite attack),solution conc. 5%,1.75
same,Termite Attack Rating,solution conc. 5%,2 and 1
same,Mean Rating (termite attack),solution conc. 7%,1.00
same,Termite Attack Rating,solution conc. 7%,1
same,Mean Rating (termite attack),solution conc. 10%,1.00
same,Termite Attack Rating,solution conc. 10%,1
"CC(c1cc(Br)c(O)c(Br)c1)c1cc(Br)c(O)c(Br)c1 [TBBE, 4,4′-ethylidenebis(2,6-dibromophenol)]",Surface Activity (termites on the surface of the soil),"1 week, solution conc. 1%",No/No
same,Tunneling Activity,"1 week, solution conc. 1%",Yes/Yes
same,Visible Mortality,"1 week, solution conc. 1%",No/No
same,Surface Activity (termites on the surface of the soil),"1 week, solution conc. 3%",No/No
same,Tunneling Activity,"1 week, solution conc. 3%",Yes/Yes
same,Visible Mortality,"1 week, solution conc. 3%",No
same,Surface Activity (termites on the surface of the soil),"1 week, solution conc. 5%",No/No
same,Tunneling Activity,"1 week, solution conc. 5%",Yes/Yes
same,Visible Mortality,"1 week, solution conc. 5%",No
same,Surface Activity (termites on the surface of the soil),"1 week, solution conc. 7%",1-25%/1-25% (of % (of pop.)
same,Tunneling Activity,"1 week, solution conc. 7%",Yes/Yes
same,Surface Activity (termites on the surface of the soil),"1 week, solution conc. 10%",1-25%/1-25% (of % (of pop.)
same,Tunneling Activity,"1 week, solution conc. 10%",Yes/Yes
same,Visible Mortality,"1 week, solution conc. 10%",No
same,Surface Activity (termites on the surface of the soil),"4 weeks, solution conc. 1%",No/No
same,Tunneling Activity,"4 weeks, solution conc. 1%",Yes/Yes
same,Visible Mortality,"4 weeks, solution conc. 1%",No/No
same,Surface Activity (termites on the surface of the soil),"4 weeks, solution conc. 3%",No/No
same,Tunneling Activity,"4 weeks, solution conc. 3%",Yes/Yes
same,Visible Mortality,"4 weeks, solution conc. 3%",1-33 % (of pop.)
same,Surface Activity (termites on the surface of the soil),"4 weeks, solution conc. 5%",No/No
same,Tunneling Activity,"4 weeks, solution conc. 5%",Yes/Yes
same,Surface Activity (termites on the surface of the soil),"4 weeks, solution conc. 7%",1-25%/1-25% (of % (of pop.)
same,Tunneling Activity,"4 weeks, solution conc. 7%",Yes/Yes
same,Visible Mortality,"4 weeks, solution conc. 7%",67-100 % (of pop.)
same,Surface Activity (termites on the surface of the soil),"4 weeks, solution conc. 10%",1-25%/1-25% (of % (of pop.)
same,Tunneling Activity,"4 weeks, solution conc. 10%",Yes/Yes
same,Visible Mortality,"4 weeks, solution conc. 10%",67-100 % (of pop.)
same,reduction in termite attack,,a significant reduction in termite attack
same,repellent effect on termites (surface activity data),,a degree of termite repellency; also recorded: a repellent effect at certain stages of the incubation period; also recorded: a repellent effect early in the incubation period at higher concentrations
same,termite mortality by the end of the incubation period,,significant termite mortality
same,"toxic value, lower (concentration at which the wood is no longer sufficiently protected)",4 weeks,28.53 kg/m^3
same,"toxic value, upper (lowest concentration which protects the wood)",4 weeks,35.93 kg/m^3
same,Mean Rating (termite attack),solution conc. 1%,3.00
same,Termite Attack Rating,solution conc. 1%,3
same,Mean Rating (termite attack),solution conc. 3%,2.00
same,Termite Attack Rating,solution conc. 3%,2 and 3 and 1
same,Mean Rating (termite attack),solution conc. 5%,1.50
same,Termite Attack Rating,solution conc. 5%,2 and 1
same,Mean Rating (termite attack),solution conc. 7%,1.00
same,Termite Attack Rating,solution conc. 7%,1
same,Mean Rating (termite attack),solution conc. 10%,1.25
same,Termite Attack Rating,solution conc. 10%,1 and 2
"Oc1c(Br)cc(C2(c3cc(Br)c(O)c(Br)c3)CCCCC2)cc1Br [TBBZ, 4,4′-cyclohexylidene(2,6-dibromophenol)]",Surface Activity (termites on the surface of the soil),"1 week, solution conc. 1%",No/No
same,Tunneling Activity,"1 week, solution conc. 1%",Yes/Yes
same,Visible Mortality,"1 week, solution conc. 1%",No/No
same,Surface Activity (termites on the surface of the soil),"1 week, solution conc. 3%",No/No
same,Tunneling Activity,"1 week, solution conc. 3%",Yes/Yes
same,Visible Mortality,"1 week, solution conc. 3%",No
same,Surface Activity (termites on the surface of the soil),"1 week, solution conc. 5%",No/No
same,Tunneling Activity,"1 week, solution conc. 5%",Yes/Yes
same,Visible Mortality,"1 week, solution conc. 5%",No
same,Surface Activity (termites on the surface of the soil),"1 week, solution conc. 7%",1-25 % (of pop.)
same,Tunneling Activity,"1 week, solution conc. 7%",Yes/Yes
same,Visible Mortality,"1 week, solution conc. 7%",No
same,Surface Activity (termites on the surface of the soil),"1 week, solution conc. 10%",1-25 % (of pop.)
same,Tunneling Activity,"1 week, solution conc. 10%",Yes/Yes
same,Visible Mortality,"1 week, solution conc. 10%",No
same,Surface Activity (termites on the surface of the soil),"4 weeks, solution conc. 1%",No/No
same,Tunneling Activity,"4 weeks, solution conc. 1%",Yes/Yes
same,Visible Mortality,"4 weeks, solution conc. 1%",No/No
same,Surface Activity (termites on the surface of the soil),"4 weeks, solution conc. 3%",No/No
same,Tunneling Activity,"4 weeks, solution conc. 3%",Yes/Yes
same,Visible Mortality,"4 weeks, solution conc. 3%",1-33 % (of pop.)
same,Surface Activity (termites on the surface of the soil),"4 weeks, solution conc. 5%",No/No
same,Tunneling Activity,"4 weeks, solution conc. 5%",Yes/Yes
same,Visible Mortality,"4 weeks, solution conc. 5%",34-66 % (of pop.)
same,Surface Activity (termites on the surface of the soil),"4 weeks, solution conc. 7%",No
same,Tunneling Activity,"4 weeks, solution conc. 7%",Yes/Yes
same,Visible Mortality,"4 weeks, solution conc. 7%",34-66 % (of pop.)
same,Surface Activity (termites on the surface of the soil),"4 weeks, solution conc. 10%",No
same,Tunneling Activity,"4 weeks, solution conc. 10%",Yes/Yes
same,Visible Mortality,"4 weeks, solution conc. 10%",67-100 % (of pop.)
same,reduction in termite attack,,a significant reduction in termite attack; also recorded: the higher concentrations do reduce termite attack
same,repellent effect on termites (surface activity data),,a degree of termite repellency
same,Mean Rating (termite attack),solution conc. 1%,2.50
same,Termite Attack Rating,solution conc. 1%,4 and 2
same,Mean Rating (termite attack),solution conc. 3%,1.50
same,Termite Attack Rating,solution conc. 3%,2 and 1
same,Mean Rating (termite attack),solution conc. 5%,1.25
same,Termite Attack Rating,solution conc. 5%,1 and 2
same,Mean Rating (termite attack),solution conc. 7%,1.25
same,Termite Attack Rating,solution conc. 7%,1 and 2
same,Mean Rating (termite attack),solution conc. 10%,1.25
same,Termite Attack Rating,solution conc. 10%,1 and 2
